Patent US20220386606A1, “SPECIFICALLY SUBSTITUTED 3-PHENYL-5-SPIROCYCLOPENTYL-3-PYRROLIN-2-ONES AND THEIR USE AS HERBICIDES” (Bayer Aktiengesellschaft, priority 2019, published 2022)

Experiments:
ALOMY [1] = assay: Pre-emergence herbicidal action against ALOMY; type: in vivo, Alopecurus myosuroides; conditions: 320 g/ha, scored visually after 3 weeks vs untreated controls
Excerpt: (§1) Seeds of monocotyledonous and dicotyledonous weed plants and crop plants are laid out in sandy loam soil in wood-fiber pots and covered with soil. The compounds of the invention, formulated in the form of wettable powders (WP) or as emulsion concentrates (EC), are then applied to the surface of the covering soil as aqueous suspension or emulsion at a water application rate equating to 600 to 800 L/ha with addition of 0.2% wetting agent.
(§2) After the treatment, the pots are placed in a greenhouse and kept under good growth conditions for the trial plants. The damage to the test plants is scored visually after a test period of 3 weeks by comparison with untreated controls (herbicidal activity in percent (%): 100% activity=the plants have died, 0% activity=like control plants).

AVEFA [2] = assay: Pre-emergence herbicidal action against AVEFA; type: in vivo, Avena fatua; conditions: 320 g/ha, scored visually after 3 weeks vs untreated controls
Excerpt: as §1, §2

DIGSA [3] = assay: Pre-emergence herbicidal action against DIGSA; type: in vivo, Digitaria sanguinalis; conditions: 320 g/ha, scored visually after 3 weeks vs untreated controls
Excerpt: as §1, §2

ECHCG [4] = assay: Pre-emergence herbicidal action against ECHCG; type: in vivo, Echinochloa crus-galli; conditions: 320 g/ha, scored visually after 3 weeks vs untreated controls
Excerpt: as §1, §2

LOLRI [5] = assay: Pre-emergence herbicidal action against LOLRI (Table 8, titled post-emergence at 320 g/ha); type: in vivo, Lolium rigidum; conditions: table stands in the pre-emergence section
Excerpt: as §1, §2

SETVI [6] = assay: Pre-emergence herbicidal action against SETVI; type: in vivo, Setaria viridis; conditions: 320 g/ha, scored visually after 3 weeks vs untreated controls
Excerpt: as §1, §2

ALOMY [7] = assay: Post-emergence herbicidal action against ALOMY; type: in vivo, Alopecurus myosuroides; conditions: 80 g/ha, visual assessment after about 3 weeks
Method: (§3) Seeds of monocotyledonous and dicotyledonous weed and crop plants are laid out in sandy loam soil in wood-fiber pots, covered with soil and cultivated in a greenhouse under good growth conditions. 2 to 3 weeks after sowing, the test plants are treated at the one-leaf stage. The compounds of the invention, formulated in the form of wettable powders (WP) or as emulsion concentrates (EC), are then sprayed onto the green parts of the plants as aqueous suspension or emulsion at a water application rate equating to 600 to 800 l/ha with addition of 0.2% wetting agent. After the test plants have been left to stand in the greenhouse under optimal growth conditions for about 3 weeks, the action of the preparations is assessed visually in comparison to untreated controls (herbicidal action in percent (%): 100% activity=the plants have died, 0% activity=like control plants).

AVEFA [8] = assay: Post-emergence herbicidal action against AVEFA; type: in vivo, Avena fatua; conditions: 80 g/ha, visual assessment after about 3 weeks
Method: as §3

DIGSA [9] = assay: Post-emergence herbicidal action against DIGSA; type: in vivo, Digitaria sanguinalis; conditions: 80 g/ha, visual assessment about 3 weeks after treatment vs untreated controls
Method: as §3

ECHCG [10] = assay: Post-emergence herbicidal action against ECHCG; type: in vivo, Echinochloa crus-galli; conditions: 80 g/ha, visual assessment about 3 weeks after treatment vs untreated controls
Method: as §3

LOLRI [11] = assay: Post-emergence herbicidal action against LOLRI; type: in vivo, Lolium rigidum; conditions: 80 g/ha, visual assessment about 3 weeks after treatment vs untreated controls
Method: as §3

SETVI [12] = assay: Post-emergence herbicidal action against SETVI; type: in vivo, Setaria viridis; conditions: 80 g/ha, visual assessment about 3 weeks after treatment vs untreated controls
Method: as §3

SMILES | Pre-emergence action against ALOMY in % (ALOMY [1]) [%] | Pre-emergence action against AVEFA in % (AVEFA [2]) [%] | Pre-emergence action against DIGSA in % (DIGSA [3]) [%] | Pre-emergence action against ECHCG in % (ECHCG [4]) [%] | Pre-emergence herbicidal action against LOLRI in % (LOLRI [5]) [%] | Pre-emergence action against SETVI in % (SETVI [6]) [%] | Post-emergence action against ALOMY in % (ALOMY [7]) [%] | Post-emergence action against AVEFA in % (AVEFA [8]) [%] | Post-emergence action against DIGSA in % (DIGSA [9]) [%] | Post-emergence action against ECHCG in % (ECHCG [10]) [%] | Post-emergence action against LOLRI in % (LOLRI [11]) [%] | Post-emergence action against SETVI in % (SETVI [12]) [%]
CC#Cc1cc(Br)c(C2=C(O)C3(CCC(COCC)C3)NC2=O)c(OCC)c1 (stereo not shown) [Example I-64] | 100 | 80 | 100 | 100 | 100 | 100 | 90 | 80 | 80 | 100 | 90 | 100
CC#Cc1cc(Br)c(C2=C(O)C3(CCC(COC)C3)NC2=O)c(OCC)c1 (stereo not shown) [Example I-66] | 100 | 100 | 100 | 100 | 100 | 100 | 100 | 80 | 90 | 100 | 100 | 100
C#CCOCC1CCC2(C1)NC(=O)C(c1c(F)cc(C#CC)cc1OC)=C2O (stereo not shown) [Example I-74] | 100 | 90 | 100 | 100 | 100 | 100 | 90 | 80 | 90 | 100 | 90 | 100
CC#Cc1cc(Br)c(C2=C(OC(=O)C(C)C)C3(CCC(COC)C3)NC2=O)c(CC)c1 (stereo not shown) [Example P-45] |  |  |  |  |  | 80 |  |  |  |  |  | 
CC#Cc1cc(F)c(C2=C(OC(=O)OCC)C3(CCC(COC)C3)NC2=O)c(OC)c1 (stereo not shown) [Example P-63] | 100 | 90 | 100 | 90 | 100 | 100 | 100 | 80 | 100 | 100 | 100 | 100
C=CCOCC1CCC2(C1)NC(=O)C(c1c(C)cc(C#CC)cc1OC)=C2OC(=O)OCC (stereo not shown) [Example P-68] | 100 |  | 100 | 100 | 100 | 100 | 100 | 90 | 90 | 100 | 90 | 100
C=CCOCC1CCC2(C1)NC(=O)C(c1c(F)cc(C#CC)cc1OC)=C2OC(=O)OCC (stereo not shown) [Example P-78] | 100 |  | 100 | 100 | 100 | 100 | 100 |  | 90 | 100 |  | 100
CC#Cc1cc(Br)c(C2=C(OC(=O)OCC)C3(CCC(COC)C3)NC2=O)c(OCC)c1 (stereo not shown) [Example P-94] | 100 | 100 | 100 | 100 | 100 | 100 |  |  | 80 | 100 | 90 | 100
